# According to US20210187016A1, “METHOD OF TREATING NONALCOHOLIC STEATOHEPATITIS” (Vector Vitale IP LLC, priority 2019, published 2021):
# Experiment: Intraperitoneal administration to intact rats: accumulation of metals in liver and kidney tissues
# Format: in vivo
# Conditions: day 1 and day 7 after drug withdrawal, 3750 μg of zinc per kg intraperitoneally, 7 injections
# Method: Animals are placed in cages, 4 per cage, with free access to food/water. […] Administration is performed every other day, in the amount of 7 injections per animal (intraperitoneal method of drug administration). […] After the last injection, a half of the animals are maintained on hunger (for 12 hours) with free access to water. Upon expiration of this time period, the animals are taken out of the experiment. The second half of the animals continues to have free access to food/water for a further 7 days. On day 6 after the last injection, the animals are maintained on hunger (for 12 hours) with free access to water. Upon expiration of this time period, the animals are taken out of the experiment.
# The total kidney, liver and muscle homogenates were prepared as follows. Organ excision and homogenization were carried out at a temperature of 1-4° C. […] The volume of the used buffer in ml was 5 times larger than the mass of isolated organs in grams. The isolated liver was perfused with chilled saline (0.9% NaCl) via the portal vein using a syringe. The minced liver was transferred to a homogenizer with a finely ground Teflon pestle and homogenized in chilled buffer. An isolated pair of kidneys was perfused with chilled saline, released from adipose tissue and minced with scissors. […]
structure (smiles),measurement,value
"CC(=O)[O-].CC(=O)[O-].[Zn+2] [Zn acetate, Zinc acetate]",Zinc level in liver and kidney tissues,significantly increased
